Earlier results as cited in publication PMC11214510 (Saudi Journal of Biological Sciences, 2024).

Tested on: AChE
Conditions: mice, long-term supplementation, 40 mg/kg; ref Kasbe et al., 2015

O=c1c2cc(O)c(O)cc2oc2cc(O)c([C@@H]3O[C@H](CO)[C@@H](O)[C@H](O)[C@H]3O)c(O)c12 [mangiferin]
AChE expression produced by AlCl3: inhibits the expression of AChE
